These results are taken from patent publication US8946238B2, “Pyrazolo[1,5-A]pyrimidines as antiviral agents” (Gilead Sciences, Inc., priority 2011, dated 2015).

The test deals with RSV strain A2. In words: RSV antiviral cytoprotection assay in Hep2 cells (RSV-induced cytopathic effect, Cell TiterGlo). It is filed as cell-based, Respiratory Syncytial Virus (RSV). Conditions: human respiratory syncytial virus, HEp-2, 0.5 μM compound; RSV A2-infected Hep2 cells; % inhibition calculated from 4-parameter dose response curve, normalized to 0% and 100%; read-out: Percent inhibition at 0.5 μM. Summed up:
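Hep2 cells were infected with RSV A2 and exposed to 3-fold compound dilutions, either 3,000 cells/well for 4 days (96-well) or 2000 cells/well at MOI 1:1000 for 5 days at 37° C. (384-well). Cytopathic effect was read by Cell TiterGlo luminescence, and EC50 or normalized % inhibition came from curve fits against infected and uninfected controls.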

With `Cc1cn2nc([C@@H]3CCCCN3C(=O)c3cc(Cl)ccc3NS(C)(=O)=O)cc2nc1N1C[C@@H](C#N)[C@@H](OC(=O)CCC(=O)NCCN2CCOCC2)C1` [Compound 209], the inhibition (commonly the share of the control response that was lost under treatment) at 0.5 µM is 100%.
